Patent US9006451B1, “2-anilinonicotinyl based chalcones useful as potential anticancer agents and process for preparation thereof” (Council of Scientific and Industrial Research, priority 2013, dated 2015)
Like-named read-outs stand apart in the source and are kept apart here.

Key:
Format in all cases: cell-based
NCI-H226 = assay: NCI 60 human tumor cell line screen (SRB): NCI-H226; details: NCI-H226, Non-small cell lung, 48 hours, read-out: GI50 values (μM conc.)
Protocol: (§1) The in vitro anticancer activity studies for these chalcone analogues were carried out at the National Cancer Institute, USA.
(§2) The chalcone compounds have been tested at NCI, USA, against sixty human tumor cell lines derived from nine cancer types (leukemia, non-small cell lung cancer, colon cancer, CNS cancer, melanoma cancer, ovarian cancer, renal cancer, prostate cancer and breast cancer). For these compounds results are expressed as growth inhibition (GI50) values as per NCI protocol.
(§3) We describe here the development and implementation of a pilot-scale, in vitro, anticancer drug screen utilizing a panel of 60 human tumor cell lines organized into subpanels representing leukemia, melanoma, and cancers of the lung, colon, kidney, ovary, and central nervous system. The ultimate goal of this disease-oriented screen is to facilitate the discovery of new compounds with potential cell line-specific and/or subpanel-specific antitumor activity. In the current screening protocol, each cell line is inoculated onto microtiter plates, then preincubated for 28 hours. Subsequently, test agents are added in five 10-fold dilutions and the culture is incubated for an additional 48 hours. For each test agent, a dose-response profile is generated. End-point determinations of the cell viability or cell growth are performed by in situ fixation of cells, followed by staining with a protein-binding dye, sulforhodamine B (SRB). The SRB binds to the basic amino acids of cellular macromolecules; the solubilized stain is measured spectrophotometrically to determine relative cell growth or viability in treated and untreated cells.

EKVX = assay: NCI 60 human tumor cell line screen (SRB): EKVX; details: Non-small cell lung, 48 hours, read-out: GI50 values (μM conc.)
Protocol: as §1, §2, §3

SK-MEL-5 = assay: NCI 60 human tumor cell line screen (SRB): SK-MEL-5; details: SK-MEL-5, Melanoma, 48 hours, read-out: GI50 values (μM conc.)
Protocol: as §1, §2, §3

RPMI-8226 = assay: NCI 60 human tumor cell line screen (SRB): RPMI-8226; details: RPMI-8226, Leukemia, 48 hours, read-out: GI50 values (μM conc.)
Protocol: as §1, §2, §3

OVCAR-4 = assay: NCI 60 human tumor cell line screen (SRB): OVCAR-4; details: OVCAR-4, Ovarian, 48 hours, read-out: GI50 values (μM conc.)
Protocol: as §1, §2, §3

DU-145 = assay: NCI 60 human tumor cell line screen (SRB): DU-145; details: DU-145, Prostate, 48 hours, read-out: GI50 values (μM conc.)
Protocol: as §1, §2, §3

LOX IMVI = assay: NCI 60 human tumor cell line screen (SRB): LOX IMVI; details: Melanoma, 48 hours, read-out: GI50 values (μM conc.)
Protocol: as §1, §2, §3

SF-539 = assay: NCI 60 human tumor cell line screen (SRB): SF-539; details: SF-539, CNS, 48 hours, read-out: GI50 values (μM conc.)
Protocol: as §1, §2, §3

SF-268 = assay: NCI 60 human tumor cell line screen (SRB): SF-268; details: SF-268, CNS, 48 hours, read-out: GI50 values (μM conc.)
Protocol: as §1, §2, §3

MDA-MB-231/ATCC = assay: NCI 60 human tumor cell line screen (SRB): MDA-MB-231/ATCC; details: Breast, 48 hours, read-out: GI50 values (μM conc.)
Protocol: as §1, §2, §3

CCRF-CEM = assay: NCI 60 human tumor cell line screen (SRB): CCRF-CEM; details: Leukemia, 48 hours, read-out: GI50 values (μM conc.)
Protocol: as §1, §2, §3

NCI-H322M = assay: NCI 60 human tumor cell line screen (SRB): NCI-H322M; details: Non-small cell lung, 48 hours, read-out: GI50 values (μM conc.)
Protocol: as §1, §2, §3

UACC-62 = assay: NCI 60 human tumor cell line screen (SRB): UACC-62; details: UACC-62, Melanoma, 48 hours, read-out: GI50 values (μM conc.)
Protocol: as §1, §2, §3

786-0 = assay: NCI 60 human tumor cell line screen (SRB): 786-0; details: 786-0, Renal, 48 hours, read-out: GI50 values (μM conc.)
Protocol: as §1, §2, §3

COLO-205 = assay: NCI 60 human tumor cell line screen (SRB): COLO-205; details: COLO-205, Colon, 48 hours, read-out: GI50 values (μM conc.)
Protocol: as §1, §2, §3

RXF 393 = assay: NCI 60 human tumor cell line screen (SRB): RXF 393; details: RXF 393, Renal, 48 hours, read-out: GI50 values (μM conc.)
Protocol: as §1, §2, §3

UACC-257 = assay: NCI 60 human tumor cell line screen (SRB): UACC-257; details: UACC-257, Melanoma, 48 hours, read-out: GI50 values (μM conc.)
Protocol: as §1, §2, §3

NCI/ADR-RES = assay: NCI 60 human tumor cell line screen (SRB): NCI/ADR-RES; details: Ovarian, 48 hours, read-out: GI50 values (μM conc.)
Protocol: as §1, §2, §3

M14 = assay: NCI 60 human tumor cell line screen (SRB): M14; details: M14, Melanoma, 48 hours, read-out: GI50 values (μM conc.)
Protocol: as §1, §2, §3

NCI-H522 = assay: NCI 60 human tumor cell line screen (SRB): NCI-H522; details: NCI-H522, Non-small cell lung, 48 hours, read-out: GI50 values (μM conc.)
Protocol: as §1, §2, §3

A498 = assay: NCI 60 human tumor cell line screen (SRB): A498; details: A498, Renal, 48 hours, read-out: GI50 values (μM conc.)
Protocol: as §1, §2, §3

ACHN = assay: NCI 60 human tumor cell line screen (SRB): ACHN; details: Renal, 48 hours, read-out: GI50 values (μM conc.)
Protocol: as §1, §2, §3

OVCAR-3 = assay: NCI 60 human tumor cell line screen (SRB): OVCAR-3; details: OVCAR-3, Ovarian, 48 hours, read-out: GI50 values (μM conc.)
Protocol: as §1, §2, §3

OVCAR-8 = assay: NCI 60 human tumor cell line screen (SRB): OVCAR-8; details: OVCAR-8, Ovarian, 48 hours, read-out: GI50 values (μM conc.)
Protocol: as §1, §2, §3

NCI-H460 = assay: NCI 60 human tumor cell line screen (SRB): NCI-H460; details: NCI-H460, Non-small cell lung, 48 hours, read-out: GI50 values (μM conc.)
Protocol: as §1, §2, §3

HT29 = assay: NCI 60 human tumor cell line screen (SRB): HT29; details: HT-29, HT29, Colon, 48 hours, read-out: GI50 values (μM conc.)
Protocol: as §1, §2, §3

MCF7 = assay: NCI 60 human tumor cell line screen (SRB): MCF7
Protocol: as §1, §2, §3

OVCAR-5 = assay: NCI 60 human tumor cell line screen (SRB): OVCAR-5; details: OVCAR-5, Ovarian, 48 hours, read-out: GI50 values (μM conc.)
Protocol: as §1, §2, §3

IGROV1 = assay: NCI 60 human tumor cell line screen (SRB): IGROV1; details: IGROV-1, IGROV1, Ovarian, 48 hours, read-out: GI50 values (μM conc.)
Protocol: as §1, §2, §3

[1] = MCF7, Breast, 48 hours, SRB, read-out: GI50 values (μM conc.)
[2] = MCF7, comparison table, read-out: GI50 μM in MCF7

Row | Structure (SMILES) | GI50 (NCI-H226) [µM] | GI50 (EKVX) [µM] | GI50 (SK-MEL-5) [µM] | GI50 (RPMI-8226) [µM] | GI50 (OVCAR-4) [µM] | GI50 (DU-145) [µM] | GI50 (LOX IMVI) [µM] | GI50 (SF-539) [µM] | GI50 (SF-268) [µM] | GI50 (MDA-MB-231/ATCC) [µM] | GI50 (CCRF-CEM) [µM] | GI50 (NCI-H322M) [µM] | GI50 (UACC-62) [µM] | GI50 (786-0) [µM] | GI50 (COLO-205) [µM] | GI50 (RXF 393) [µM] | GI50 (UACC-257) [µM] | GI50 (NCI/ADR-RES) [µM] | GI50 (M14) [µM] | GI50 (NCI-H522) [µM] | also measured
1 | COc1cc(C(=O)/C=C/c2cccnc2Nc2ccc(Cl)cc2)cc(OC)c1OC [6ax, (E)-3-(2-(4-Chlorophenylamino)pyridin-3-yl)-1-(3,4,5-trimethoxyphenyl)prop-2-en-1-one] | 1.16 | 1.61 | 1.5 | 0.65 | 1.51 | 1.63 | 1.27 | 1.71 | 1.72 | 1.49 | 0.37 | 1.95 | 1.54 | 1.46 | 1.83 | 1.26 | 1.5 | 1.64 | 1.75 | 1.46 | GI50 (A498): 1.4 µM; GI50 (ACHN): 1.77 µM; GI50 (OVCAR-3): 1.31 µM; GI50 (OVCAR-8): 1.63 µM; GI50 (NCI-H460): 1.92 µM; GI50 (HT29): 1.43 µM; GI50 (MCF7; [1]): 1.02 µM; GI50 (MCF7; [2]): 1.02 µM; GI50 (OVCAR-5): 1.74 µM; GI50 (IGROV1): 2.24 µM
2 | COc1ccc(Nc2ncccc2/C=C/C(=O)c2cc(OC)c(OC)c(OC)c2)cc1 [6h, (E)-3-(2-(4-Methoxyphenylamino)pyridin-3-yl)-1-(3,4,5-trimethoxyphenyl)prop-2-en-1-one] | 1.37 | 1.8 | 1.39 | 1.08 | 1.62 | 1.59 | 1.23 | 2.04 | 1.77 | 1.94 | 0.5 | 2.13 | 1.56 | 1.69 | 1.69 | 1.49 | 1.53 | 2.23 | 1.65 | 0.36 | GI50 (A498): 3.19 µM; GI50 (ACHN): 1.55 µM; GI50 (OVCAR-3): 1.64 µM; GI50 (OVCAR-8): 1.56 µM; GI50 (NCI-H460): 2.01 µM; GI50 (HT29): 1.6 µM; GI50 (MCF7; [1]): 0.69 µM; GI50 (MCF7; [2]): 0.69 µM; GI50 (OVCAR-5): 1.97 µM; GI50 (IGROV1): 2 µM
3 | COc1cc(/C=C/C(=O)c2cccnc2Nc2ccc(F)cc2)cc(OC)c1OC [7f, (E)-1-(2-(4-Fluorophenylamino)pyridin-3-yl)-3-(3,4,5-trimethoxyphenyl)prop-2-en-1-one] | 1.79 | 3.94 | 2.51 | 2.43 | 3.81 | 3.32 | 1.69 | 2.85 | 4.18 | 3.07 | 2.45 | 4.83 | 2.35 | 3.9 | 2.64 | 2.81 | 2.9 | 2.37 | 3.19 | 2.69 | GI50 (A498): 2.18 µM; GI50 (ACHN): 2.84 µM; GI50 (OVCAR-3): 2.63 µM; GI50 (OVCAR-8): 2.69 µM; GI50 (NCI-H460): 2.83 µM; GI50 (HT29): 2.75 µM; GI50 (MCF7; [1]): 2.44 µM; GI50 (MCF7; [2]): 2.44 µM; GI50 (OVCAR-5): 4.1 µM; GI50 (IGROV1): 7.42 µM
4 | COc1ccc(C(=O)/C=C/c2cccnc2Nc2cc(OC)c(OC)c(OC)c2)cc1 [6z, (E)-1-(4-Methoxyphenyl)-3-(2-(3,4,5-trimethoxyphenylamino)pyridin-3-yl)prop-2-en-1-one] | 1.73 | 10.8 | 2.41 | 0.85 | 1.78 | 2.59 | 1.12 | 1.81 | 3.13 | 2.15 | 0.71 | 7.38 | 1.9 | 1.31 | 1.54 | 1.68 | 3.63 | 1.38 | 2.55 | 1.33 | GI50 (A498): 4.28 µM; GI50 (ACHN): 1.7 µM; GI50 (OVCAR-3): 0.48 µM; GI50 (OVCAR-8): 2.2 µM; GI50 (NCI-H460): 2.16 µM; GI50 (HT29): 0.37 µM; GI50 (MCF7; [1]): 0.18 µM; GI50 (MCF7; [2]): 0.18 µM; GI50 (OVCAR-5): 1.95 µM; GI50 (IGROV1): 4.64 µM
